Laboratory results taken from PMC3081901 (Bioorganic & medicinal chemistry letters, 2010).

Target: T1, human A1 AR (Homo sapiens, UniProt P30542)
T1 sequence (P30542 1-326): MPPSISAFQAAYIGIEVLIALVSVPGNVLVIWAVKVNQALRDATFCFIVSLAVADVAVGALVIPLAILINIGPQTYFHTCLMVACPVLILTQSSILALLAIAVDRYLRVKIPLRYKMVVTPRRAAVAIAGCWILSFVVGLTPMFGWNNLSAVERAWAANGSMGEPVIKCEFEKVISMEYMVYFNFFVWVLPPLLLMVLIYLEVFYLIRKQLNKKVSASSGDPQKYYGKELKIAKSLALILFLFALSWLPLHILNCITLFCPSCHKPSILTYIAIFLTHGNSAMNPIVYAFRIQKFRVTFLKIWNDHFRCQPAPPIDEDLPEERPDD
Experiment: Competition radioligand binding, human A1 AR

## Nc1nc2c(cnn2CCCc2ccc(OCC(=O)NCCNCCNC(=O)CCCCCNC(=O)COc3ccc(/C=C/C4=[N+]5C(=Cc6ccc(-c7ccc[nH]7)n6[B-]5(F)F)C=C4)cc3)cc2)c2nc(-c3ccco3)nn12 [Compound 14]
  Ki: 4.18 ± 0.92 µM
